Assay results from US20070059773A1, “Identification of therapeutic compounds” (priority 2003, published 2007).
In brackets after ≈: the same amount, converted by molar mass. Where two headings read alike, the source gives them in different places. Each block holds one compound with its values, some of them ahead of it.

How the values were obtained:
rat cortex A1 receptor = biological target: T1, rat cortex A1 receptor (Rattus norvegicus, UniProt P25099); test: Displacement of 3H-DPCPX from the rat cortex A1 receptor; format: binding
T1 construct: from tissue; host or cells: rat cortex
T1 sequence (P25099 1-326): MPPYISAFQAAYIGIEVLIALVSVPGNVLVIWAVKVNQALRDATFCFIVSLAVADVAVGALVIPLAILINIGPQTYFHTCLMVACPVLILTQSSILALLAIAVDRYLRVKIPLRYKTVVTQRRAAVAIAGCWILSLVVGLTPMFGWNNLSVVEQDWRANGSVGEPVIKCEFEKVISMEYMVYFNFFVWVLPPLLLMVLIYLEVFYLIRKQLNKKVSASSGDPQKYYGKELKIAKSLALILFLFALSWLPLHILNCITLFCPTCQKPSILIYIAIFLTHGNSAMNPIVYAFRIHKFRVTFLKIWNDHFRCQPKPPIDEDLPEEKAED

[1] = biological target: T2, rat striatal A2A receptor (Rattus norvegicus, UniProt P30543); details: for number of affinity states revealed: Tables 1 and 2; for number of affinity states revealed / effect of GTP on the high affinity states: lower pH; for high affinity states as proportion of the total number of binding sites: lower pH (5.5); for effect of GTP on the high affinity states: presence of GTP
T2 sequence (P30543 whole entry): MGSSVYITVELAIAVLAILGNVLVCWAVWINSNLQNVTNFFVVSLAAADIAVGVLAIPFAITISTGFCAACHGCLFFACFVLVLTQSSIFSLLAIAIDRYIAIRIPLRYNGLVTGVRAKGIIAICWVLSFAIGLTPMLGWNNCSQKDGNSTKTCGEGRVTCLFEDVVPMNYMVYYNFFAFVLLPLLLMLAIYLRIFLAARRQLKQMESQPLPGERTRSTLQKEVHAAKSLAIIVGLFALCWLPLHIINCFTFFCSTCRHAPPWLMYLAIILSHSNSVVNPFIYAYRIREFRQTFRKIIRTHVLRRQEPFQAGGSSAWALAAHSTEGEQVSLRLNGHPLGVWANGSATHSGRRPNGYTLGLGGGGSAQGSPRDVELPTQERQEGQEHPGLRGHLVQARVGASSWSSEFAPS

[2] = biological target: T2, rat striatal A2A receptor; test: biochemical
human A2A receptor = biological target: T3, human A2A receptor (Homo sapiens, UniProt P29274); test: cAMP accumulation in HEK293 cells expressing the human A2A receptor; format: cell-based
T3 construct: expressed in transfected cells; host or cells: HEK293
T3 sequence (P29274 whole entry): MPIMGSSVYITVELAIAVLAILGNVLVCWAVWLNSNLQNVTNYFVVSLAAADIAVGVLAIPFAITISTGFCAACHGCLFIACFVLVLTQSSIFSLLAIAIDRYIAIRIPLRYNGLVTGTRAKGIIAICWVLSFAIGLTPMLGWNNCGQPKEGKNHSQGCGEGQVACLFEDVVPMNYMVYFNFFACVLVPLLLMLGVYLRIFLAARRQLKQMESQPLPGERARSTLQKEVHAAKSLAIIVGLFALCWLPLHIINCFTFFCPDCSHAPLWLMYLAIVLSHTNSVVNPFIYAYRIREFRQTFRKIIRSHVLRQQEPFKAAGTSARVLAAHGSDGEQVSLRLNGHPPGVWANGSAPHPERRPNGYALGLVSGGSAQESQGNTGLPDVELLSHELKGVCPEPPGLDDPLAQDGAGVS
From the text: The human A2A receptor was expressed in HEK293 cells, and the ability of agonists to stimulate cAMP accumulation assessed in the presence of rolipram to inhibit phosphodiesterase enzymes.

[3] = tested on: carrageenan (CGN) induced thermal hyperalgesia; test: Carrageenan induced thermal hyperalgesia (paw withdrawal latency); format: in vivo; details: 0.6 mg/kg, given with carrageenan; compared with indomethacin 3 mg/kg po
Description: Carrageenan (2%, 10 microlitres) was administered into the right hind paw. A heat source was placed close to the treated and untreated hind paws, and the difference in the paw withdrawal latencies is shown. 2-methoxyadenosine was administered at the same time as carrageenan.

[4] = Blood pressure and heart rate by implanted radiotelemetry; format: in vivo; details: 0.624 mg/kg p.o., rat
Description: An implantable radiotelemetry device was placed in the abdominal cavity of 6 rats per group. The pressure catheter of the device was inserted in the abdominal aorta and two electrodes tunnelised under the skin in a lead II position (left side of abdominal cavity/right shoulder). Individual rats were placed in their own cage on a radioreceptor (DSI) for data acquisition. The effect of 0.6 mg/kg 2 methoxyadenosine or vehicle (p.o.) on blood pressure was then assessed. The results are shown in FIG. 5: A: blood pressure; B: heart rate.

[5] = tested on: thermal hyperalgesia caused by chronic constriction injury of the rat sciatic nerve; test: Chronic constriction injury model of neuropathic pain; format: in vivo; details: 0.624 mg/kg p.o., compared with carbamazepine 100 mg/kg s.c.
From the text: After approximately two weeks the rats developed thermal hyperalgesia in the operated leg as judged by the difference in paw withdrawal latencies of the right and left paws.

[6] = tested on: carrageenan (CGN) induced inflammation; test: Carrageenan induced inflammation (paw volume by plethysmometry); format: in vivo; details: 62.4 and 624 μg/kg i.p.; compared with indomethacin 3 mg/kg po
Description: Carrageenan (2%, 10 microlitres) was administered into the right hind paw, and the paw volume assessed by plethysomometry. 2-methoxyadenosine was administered at the same time as carrageenan.

[7] = Plasma concentration after administration; details: rat, in vivo
adenosine A2A receptor = details: cited from earlier work
[8] = tested on: carageenan-induced inflammation; details: rats, 20 mg/kg po; cited from earlier work
[9] = 20 mg/kg po; cited from earlier work
human A1 receptor = biological target: T4, human A1 receptor (Homo sapiens, UniProt P30542); test: Displacement of [3H]-DPCPX from the human A1 receptor; format: binding; details: read-out: Ki high affinity sites
T4 sequence (P30542 1-326): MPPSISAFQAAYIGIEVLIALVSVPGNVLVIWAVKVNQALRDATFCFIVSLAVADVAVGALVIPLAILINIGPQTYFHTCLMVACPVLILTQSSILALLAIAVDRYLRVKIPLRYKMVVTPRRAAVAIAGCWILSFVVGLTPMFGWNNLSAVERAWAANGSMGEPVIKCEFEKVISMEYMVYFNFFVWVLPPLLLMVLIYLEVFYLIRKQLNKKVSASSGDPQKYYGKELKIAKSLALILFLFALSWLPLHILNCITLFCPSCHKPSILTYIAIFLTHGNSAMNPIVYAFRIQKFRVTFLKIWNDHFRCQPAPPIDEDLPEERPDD
From the text: Compounds that show a decrease in efficacy are likely to act as low efficacy partial agonists.

[10] = tested on: isolated perfused superior mesenteric arterial bed of the rat; details: pH of the perfusate reduced to 6.8; cited from earlier work
[11] = pH 6.2, read-out: Ki High affinity
[12] = pH 6.2, read-out: Ki Low affinity
[13] = pH 7.4, read-out: Ki High affinity
[14] = pH 7.4, read-out: Ki Low affinity

Compound: Nc1nc(Cl)nc2c1ncn2[C@@H]1O[C@H](CO)[C@@H](O)[C@H]1O [2-chloroadenosine, reference compound]
Ki (rat cortex A1 receptor; [11]): 3.7 nM
Ki (rat cortex A1 receptor; [12]): 1660 nM
Ki (rat cortex A1 receptor; [13]): 4.4 nM
Ki (rat cortex A1 receptor; [14]): 1670 nM

number of affinity states revealed [1]: two apparent affinity states
high affinity states as proportion of the total number of binding sites [1]: approximately 25%
effect of GTP on the high affinity states [1]: abolished
Ki ([2]; Ki High affinity, pH 5.5): 2.8 nM
Ki ([2]; Ki High affinity, pH 7.4): 245 nM
Ki ([2]; Ki Low affinity, pH 5.5): 1200 nM
Ki ([2]; Ki Low affinity, pH 7.4): 6600 nM
Compound: CCOc1nc(N)c2ncn([C@@H]3O[C@H](CO)[C@@H](O)[C@H]3O)c2n1 [2-ethoxyadenosine]

efficacy at pH7.0 compared to pH7.4 (human A2A receptor; cAMP accumulation in the presence of rolipram): Increased
increase in efficacy at the adenosine A2A receptor (human A2A receptor; pH7.0 compared to pH7.4, FIG. 3): approximately 100 fold
number of affinity states revealed [1]: two apparent affinity states
high affinity states as proportion of the total number of binding sites [1]: approximately 25%
Ki High affinity ([1]; pH 7.4): High affinity not detectable
change of affinity as the pH is reduced ([1]; pH from 7.4 to 7.0 to 6.8, FIG. 2): increases as the pH is reduced
effect of GTP on the high affinity states [1]: abolished
Ki ([2]; Ki High affinity, pH 5.5): 12.1 nM
Ki ([2]; Ki Low affinity, pH 5.5): 1200 nM
Ki ([2]; Ki Low affinity, pH 7.4): 2500 nM
Compound: COc1nc(N)c2ncn([C@@H]3O[C@H](CO)[C@@H](O)[C@H]3O)c2n1 [2-methoxyadenosine]
carrageenan induced thermal hyperalgesia [3]: inhibits
effect on blood pressure [4]: no Significant Effect
effect on heart rate [4]: no Significant Effect
thermal hyperalgesia, chronic constriction injury [5]: inhibits
carrageenan induced inflammation (paw volume) [6]: Inhibits
plasma concentration with profound anti-hyperalgesic and anti-inflammatory activity [7]: ≤ 0.2 µM
EC50 (adenosine A2A receptor; Daly et al. 1993, read-out: EC50 at the adenosine A2A receptor): 3000 nM
EC50 at adenosine receptors (adenosine A2A receptor; measured at pH7.4): 0.9 µg/mL (≈ 3.03 µM)
EC50 (adenosine A2A receptor; measured at pH7.4, read-out: EC50 at adenosine receptors): 3000 nM
inhibition of carageenan-induced inflammation [8]: 25%
reduction in heart rate [9]: 25%
reduction in mean blood pressure [9]: 41%

effect of GppNHp on the high affinity state (rat cortex A1 receptor; both pH values (7.4 and 6.2)): abolished
Ki (rat cortex A1 receptor; [11]): 17 nM
Ki (rat cortex A1 receptor; [12]): 13400 nM
Ki (rat cortex A1 receptor; [13]): 227 nM
Ki (rat cortex A1 receptor; [14]): 11500 nM
Compound: Nc1nc(Cl)nc2c1ncn2[C@@H]1O[C@H](CO)C[C@H]1O [3′-deoxy-2-chloroadenosine]

Ki (human A1 receptor; pH 6.2): 405 ± 114 nM
Ki (human A1 receptor; pH 7.4): 158 ± 85 nM
Compound: COc1nc(N)c2ncn([C@@H]3O[C@H](CO)C[C@H]3O)c2n1 [3′-deoxy-2-methoxyadenosine]

Ki ([2]; Ki, pH5.5, one affinity state): 35 ± 9 nM
Ki ([2]; Ki, pH 7.4, one affinity state): 170 ± 20 nM
Compound: Nc1nc(Nc2ccccc2)nc2c1ncn2[C@@H]1O[C@H](CO)[C@@H](O)[C@H]1O [CV1808, 2-phenylamino-adenosine, reference compound]

Compound: Nc1ncnc2c1ncn2[C@@H]1O[C@H](CO)[C@@H](O)[C@H]1O [adenosine]
enhancement of dilator responses [10]: 10 fold
